Earlier results as cited in PubChem BioAssay AID1259410 (Chemical Carcinogenesis Research Information System (CCRIS), 2018).

Tested on: rodent tumor promotion studies, tumor incidence
Assay: CCRIS tumor promotion studies

Structure (SMILES): CCCCCCCCCCCCCC(=O)O[C@@H]1[C@@H](C)[C@@]2(O)[C@@H](C=C(CO)C[C@]3(O)C(=O)C(C)=C[C@@H]23)[C@@H]2C(C)(C)[C@]12OC(C)=O
- outcome (Carcinogen: 7,12-DIMETHYLBENZ(A)ANTHRACENE, Doses [Carcinogen]: IG TO MOTHERS, Route [Carcinogen]: GAVAGE, Route [Promoter]: DERMAL, Species: MOUSE, Strain/Sex: NMRI/MALE,FEMALE): integumentary system (skin); forestomach; stomach; liver; lung; colon; kidney; r
- outcome (Carcinogen: 7,12-DIMETHYLBENZ(A)ANTHRACENE, Doses [Carcinogen]: IG, Route [Carcinogen]: GAVAGE, Route [Promoter]: GAVAGE, Species: MOUSE, Strain/Sex: FEMALE): forestomach
- outcome (Carcinogen: 7,12-DIMETHYLBENZ(A)ANTHRACENE, Doses [Carcinogen]: TOP, Route [Carcinogen]: DERMAL, Route [Promoter]: DERMAL, Species: MOUSE, Strain/Sex: MALE,FEMALE): integumentary system (skin)
- outcome (Carcinogen: 7,12-DIMETHYLBENZ(A)ANTHRACENE, Doses [Carcinogen]: TRANS-PLACENTAL, Route [Carcinogen]: TRANS-PLACENTAL, Route [Promoter]: DERMAL, Species: MOUSE, Strain/Sex: NMRI/MALE,FEMALE): integumentary system (skin); lung; liver
- outcome (Carcinogen: 7,12-DIMETHYLBENZO[K]FLUORANTHENE, 95741-56-3, Doses [Carcinogen]: 4 UMOL (TOTAL DOSE) ADMINISTERED IN 10 SUBDOSES 1/2 D, Doses [Promoter]: 2.5 UG IN 0.1 ML ACETONE 3/WK FOR 30 WK BEGINNING 10 D POST CARCINOGEN TREATMENT (STUDY DURATION: 33 WK), Route [Carcinogen]: DERMAL, Route [Promoter]: DERMAL, Species: MOUSE, Strain/Sex: CRL:CD-1/FEMALE): skin: tumor
- outcome (Carcinogen: 7,12-DIMETHYLBENZ[A]ANTHRACENE-3,4-DIOL, 71964-72-2, Doses [Carcinogen]: 4, 10 NMOL ONCE, Doses [Promoter]: 0, 3.4 NMOL 2/WK FOR 19 WK BEGINNING 2 WK POST CARCINOGEN DOSE (STUDY DURATION: 21 WK), Route [Carcinogen]: DERMAL, Route [Promoter]: DERMAL, Species: MOUSE, Strain/Sex: SENCAR/FEMALE): skin: papilloma
- outcome (Carcinogen: 7,12-DIMETHYLBENZ[A]ANTHRACENE, 57-97-6, Doses [Carcinogen]: 1 NMOL IN 100 µL ACETONE, Doses [Promoter]: 2.16 NMOL IN 100 µL ACETONE 2/WK FOR 27 WK BEGINNING 1 WK POST CARCINOGEN DOSE (STUDY DURATION: 28 WK), Route [Carcinogen]: DERMAL, Route [Promoter]: DERMAL, Species: MOUSE, Strain/Sex: SENCAR/FEMALE): skin: tumor
- outcome (Carcinogen: 7,12-DIMETHYLBENZ[A]ANTHRACENE, 57-97-6, Doses [Carcinogen]: 4, 20, 100 NMOL IN 100 µL ACETONE ONCE, Doses [Carcinogen]: 4, 20, 100 NMOL IN 100 µL ACETONE ONCE, Doses [Promoter]: 3.24 NMOL/100 µL ACETONE 2/WK BEGINNING 2 WK POST CARCINOGEN DOSE AND CONTINUING FOR 24 WK (STUDY DURATION: 27 WK), Route [Carcinogen]: DERMAL, Route [Promoter]: DERMAL, Species: MOUSE, Strain/Sex: SENCAR/FEMALE): skin: tumor
- outcome (Carcinogen: 7,12-DIMETHYLBENZ[A]ANTHRACENE, 57-97-6, Doses [Carcinogen]: 10 NMOL APPLIED TO BACK ONCE, Doses [Promoter]: 1.5 NMOL 2/WK FOR 19 WK BEGINNING 1 WK POST CARCINOGEN DOSE (STUDY DURATION: 40 WK), Route [Carcinogen]: DERMAL, Route [Promoter]: DERMAL, Species: MOUSE, Strain/Sex: HRA/SKH/FEMALE): skin: papilloma
- outcome (Carcinogen: 7,12-DIMETHYLBENZ[A]ANTHRACENE, 57-97-6, Doses [Carcinogen]: 20 NMOL IN ACETONE ONCE, Doses [Promoter]: 0, 0.2 ML OF 10 UG/ML SOLUTION IN ACETONE 2/WK FOR 51 WK (STUDY DURATION: 52 WK), Route [Carcinogen]: DERMAL, Route [Promoter]: DERMAL, Species: MOUSE, Strain/Sex: SENCAR/FEMALE): skin: squamous cell carcinoma
- outcome (Carcinogen: 7,12-DIMETHYLBENZ[A]ANTHRACENE, 57-97-6, Doses [Carcinogen]: 20 NMOL ONCE, Doses [Promoter]: 0, 1, 2, 5 UG IN 200 µL ACETONE 2/WK FOR 23 WK BEGINNING 1 WK POST CARCINOGEN DOSE (STUDY DURATION: 24 WK), Doses [Promoter]: 0, 1, 2, 5 UG IN 200 µL ACETONE 2/WK FOR 23 WK BEGINNING 1 WK POST CARCINOGEN DOSE (STUDY DURATION: 24 WK), Route [Carcinogen]: DERMAL, Route [Promoter]: DERMAL, Species: MOUSE, Strain/Sex: 129/SVEV/FEMALE): skin: tumor
- outcome (Carcinogen: 7,12-DIMETHYLBENZ[A]ANTHRACENE, 57-97-6, Doses [Carcinogen]: 100 NMOL ONCE, Doses [Promoter]: 0, 1, 2, 5 UG IN 200 µL ACETONE 2/WK FOR 23 WK BEGINNING 1 WK POST CARCINOGEN DOSE (STUDY DURATION: 24 WK), Doses [Promoter]: 0, 1, 2, 5 UG IN 200 µL ACETONE 2/WK FOR 23 WK BEGINNING 1 WK POST CARCINOGEN DOSE (STUDY DURATION: 24 WK), Route [Carcinogen]: DERMAL, Route [Promoter]: DERMAL, Species: MOUSE, Strain/Sex: 129/SVEV/FEMALE): skin: tumor
- outcome (Carcinogen: 7,12-DIMETHYLBENZ[A]ANTHRACENE, 57-97-6, Doses [Carcinogen]: 100 NMOL ONCE, Doses [Promoter]: 10 NMOL 2/WK FOR 24 WK BEGINNING 1 WK POST CARCINOGEN DOSE (STUDY DURATION: 25 WK), Route [Carcinogen]: DERMAL, Route [Promoter]: DERMAL, Species: NMRI/FEMALE G, Strain/Sex: NMRI/FEMALE): skin: tumor
